Test results published in patent US20060135906A1, “Iontophoretic device and method for administering immune response-enhancing agents and compositions” (priority 2004, published 2006).

Tested on: 57BL/6 mice
Experiment: Antibody titers (IgG1, IgG2) in mice given Mtb72F vaccine plus MPL adjuvant
Conditions: for antibody titer of IgG1 / antibody titer of IgG2: Mtb72F 10 μg injected, compared with no MPL administered
[1] = day 43, MPL administered iontophoretically (transcutaneous)
[2] = day 43, MPL by intracutaneous injection (MPL-AF or MPL-SE, 20 μg)

monophosphoryl lipid A [MPL]
immune response-enhancing effects (MPL administered iontophoretically, compared with intracutaneous injection): significant immune response-enhancing effects equivalent to those obtained by intracutaneous injection
antibody titer results, iontophoretic delivery compared with intracutaneous injection (day 43, IgG1 and IgG2): nearly identical
antibody titer of IgG1 [1]: significantly higher
antibody titer of IgG2 [1]: significantly higher
antibody titer of IgG1 [2]: significantly higher
antibody titer of IgG2 [2]: significantly higher
